# Columns and labels:
# [1] = biological target: IDH1 R132C (Homo sapiens, UniProt O75874, R132C); assay: IDH1 R132C enzymatic assay (NADPH depletion coupled to diaphorase/resazurin); assay type: biochemical
# In short: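 NADPH depletion, read via diaphorase/resazurin coupling, after adding substrate at 0.6 mM α-KG and 0.012 mM NADPH. Beforehand, 0.00032 mg/mL enzyme sat with compound 30 min at room temperature in pH 6.5 potassium phosphate buffer with MgCl2, glycerol and BSA.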
# [2] = biological target: IDH1 R132H (Homo sapiens, UniProt O75874, R132H); assay: IDH1 R132H enzymatic assay (NADPH depletion coupled to diaphorase/resazurin); assay type: biochemical
# Sequence of IDH1 R132H (O75874 whole entry R132H): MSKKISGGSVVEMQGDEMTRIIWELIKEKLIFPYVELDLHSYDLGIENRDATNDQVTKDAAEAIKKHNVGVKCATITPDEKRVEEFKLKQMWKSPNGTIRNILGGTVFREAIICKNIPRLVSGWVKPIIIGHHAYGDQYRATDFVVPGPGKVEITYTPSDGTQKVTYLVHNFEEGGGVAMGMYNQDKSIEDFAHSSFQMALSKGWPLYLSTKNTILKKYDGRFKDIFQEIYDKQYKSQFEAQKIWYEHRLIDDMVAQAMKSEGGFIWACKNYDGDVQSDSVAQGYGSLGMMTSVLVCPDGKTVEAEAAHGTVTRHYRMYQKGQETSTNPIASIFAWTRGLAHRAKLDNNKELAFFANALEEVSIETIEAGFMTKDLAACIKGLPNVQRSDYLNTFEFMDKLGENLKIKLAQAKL
# [3] = IDH1 R132C enzymatic inhibition, IC50 class
# [4] = IDH1 R132H enzymatic inhibition, IC50 class
# [5] = enzymatic inhibition, IDH1 R132C
# [6] = enzymatic inhibition, IDH1 R132H
# Sequence of IDH1 R132C (O75874 whole entry R132C): as the sequence (O75874 whole entry R132H) above, with H132C counted along it
Structure (SMILES),"IC50 [1, 3] [µM]","IC50 [2, 4] [µM]","IC50 [1, 5] [µM]","IC50 [2, 6] [µM]"
CC(C)=Cc1c(C(=O)N2CCNCC2)cc(-c2nc(-c3ccc(Cl)cc3)cs2)c(=O)n1-c1c(Cl)cccc1Cl [Compound 384],< 0.3,< 0.3,–,–
CCc1cccc(CC)c1-n1c(CC(C)C)c(C(=O)N2CCNCC2)cc(-c2nc(-c3ccc(Cl)cc3)c(C3CC3)s2)c1=O [Compound 385],< 0.3,0.3 to 1,–,–
CCOc1ccc(C)cc1-n1c(C=C(C)C)c(C(=O)N2CCNCC2)cc(-c2nc(-c3ccc(C(F)F)cc3)cs2)c1=O [Compound 386],< 0.3,< 0.3,–,–
CCc1cccc(CC)c1-n1c(CC(C)C)c(C(=O)N2CCNCC2)cc(-c2nc(-c3ccc(Cl)cc3)c(C(=O)OC)s2)c1=O [Compound 387],< 0.3,< 0.3,–,–
CCc1cccc(CC)c1-n1c(C=C(C)C)c(C(=O)N2C[C@H]3CC[C@@H](C2)N3)cc(-c2nc(-c3ccc(Cl)cc3)cs2)c1=O [Compound 388],< 0.3,< 0.3,–,–
COc1ccc(Cl)c(-n2c(C=C(C)C)c(C(=O)N3CCNCC3)cc(-c3ccn(-c4ccc(Cl)cc4)n3)c2=O)c1 [Compound 389],0.3 to 1,< 0.3,–,–
CCc1cccc(CC)c1-n1c(CC(C)C)c(CO)cc(-c2nc(-c3ccc(Cl)cc3)cs2)c1=O [Compound 391],0.3 to 1,0.3 to 1,–,–
CCc1cccc(CC)c1-n1c(O)c(C(=O)CC(C)C)cc(-c2nc(-c3ccc(Cl)cc3)cs2)c1=O [Compound 392],5 to 20,5 to 20,–,–
CCc1cccc(CC)c1-n1c(COCCOC)c(C(=O)N2CCNCC2)cc(-c2nc(-c3ccc(Cl)cc3)cs2)c1=O [Compound 393],0.3 to 1,< 0.3,–,–
COc1ccc(Cl)c(-n2c3c(cc(-c4nc(-c5ccc(Cl)cc5)cs4)c2=O)C(=O)CC(C)(C)C3)c1 [Compound 395],< 0.3,0.3 to 1,–,–
CCc1cccc(CC)c1-n1c(C=C(C)C)c(C(=O)N2CCNC(C(F)(F)F)C2)cc(-c2nc(-c3ccc(Cl)cc3)cs2)c1=O (centres unmarked) [Compound 396],< 0.3,< 0.3,–,–
COc1cccc(Cl)c1-n1c(C=C(C)C)c(C(=O)N2CCNCC2)cc(-c2nc(-c3ccc(Cl)cc3)cs2)c1=O [Compound 397],< 0.3,< 0.3,–,–
CCc1cccc(CC)c1-n1c(C2CCCC2)c(C(=O)N2CCNCC2)cc(-c2nc(-c3ccc(Cl)cc3)cs2)c1=O [Compound 398],< 0.3,0.3 to 1,–,–
CC(C)=Cc1c(C(=O)N2CCNCC2)cc(-c2nc(-c3ccc(Cl)cc3)cs2)c(=O)n1-c1ccccc1OC(C)C [Compound 399],< 0.3,< 0.3,–,–
CCc1cccc(CC)c1-n1c(C)c(C(=O)N2CCNCC2)c(O)c(C(=O)Nc2nc(-c3ccc(Cl)cc3)cs2)c1=O [Compound 400],> 20,> 20,–,–
CC(C)=Cc1c(C(=O)N2CCNCC2)cc(-c2nc(-c3ccc(Cl)cc3)cs2)c(=O)n1-c1cc(C)cnc1OC(C)C [Compound 401],< 0.3,< 0.3,–,–
CC1(C)CC(=O)c2cc(-c3nc(-c4ccc(Cl)cc4)cs3)c(=O)n(-c3sccc3C#N)c2C1 [Compound 402],–,–,< 0.3,0.3 to 1
CCOCc1c(C(=O)N2CCNCC2)cc(-c2nc(-c3ccc(Cl)cc3)cs2)c(=O)n1-c1c(CC)cccc1CC [Compound 404],–,–,< 0.3,< 0.3

# Now from value to molecule:
"IC50 [1, 3] [µM]","IC50 [2, 4] [µM]","IC50 [1, 5] [µM]","IC50 [2, 6] [µM]",Structure (SMILES)
–,–,< 0.3,< 0.3,CCc1cccc(CC)c1-n1c(CC(C)C)c(C(=O)N2CCNCC2)cc(-c2nc(-c3ccc(Cl)nc3)c(C)s2)c1=O [Compound 405]
–,–,5 to 20,5 to 20,CCc1ccc(N2CCN(C)CC2)c(CC)c1-n1c2c(cc(-c3nc(-c4ccc(Cl)cc4)cs3)c1=O)C(=O)CC(C)(C)C2 [Compound 406]
–,–,0.3 to 1,< 0.3,CCOc1ncc(Cl)cc1-n1c(C=C(C)C)c(C(=O)N2CCNCC2)cc(-c2nc(-c3ccc(C(F)F)cc3)cs2)c1=O [Compound 407]
–,–,< 0.3,< 0.3,CCc1cccc(CC)c1-n1c(C=C(C)C)c(C(=O)N2CCNCC2)cc(-c2nc(-c3ccc(Cl)cc3)cs2)c1=O [Compound 408]
–,–,< 0.3,< 0.3,CC(C)=Cc1c(C(=O)N2CCNCC2)cc(-c2nc(-c3ccc(Cl)cc3)cs2)c(=O)n1-c1cc(F)ccc1Cl [Compound 409]
–,–,< 0.3,< 0.3,CCc1cccc(CC)c1-n1c(C=C(C)C)c(C(=O)N2CCNCC2C(=O)O)cc(-c2nc(-c3ccc(Cl)cc3)cs2)c1=O (centres unmarked) [Compound 410]
–,–,5 to 20,5 to 20,COc1cccc(CN2CCN(C)CC2)c1-n1c2c(cc(-c3nc(-c4ccc(Cl)cc4)cs3)c1=O)C(=O)CCC2 [Compound 411]
–,–,5 to 20,5 to 20,CCc1cccc(CC)c1-n1c(CC(C)C)c(C(=O)N2CCNCC2)cc(-c2nc(Nc3ccc(Cl)cc3)c(C)s2)c1=O [Compound 412]
–,–,< 0.3,0.3 to 1,C=Cc1sc(-c2cc(C(=O)N3CCNCC3)c(CC(C)C)n(-c3c(CC)cccc3CC)c2=O)nc1-c1ccc(Cl)cc1 [Compound 413]
–,–,1 to 5,1 to 5,COc1cccc(OC)c1-n1c2c(cc(-c3nc(-c4ccc(Cl)cc4)cs3)c1=O)C(=O)CCC2 [Compound 414]
–,–,< 0.3,< 0.3,CCc1cccc(CC)c1-n1c(C=C(C)C)c(C(=O)N2CCNCC2)cc(-c2ccn(-c3ccc(OC4CC4)cc3)n2)c1=O [Compound 415]
–,–,< 0.3,< 0.3,CCc1ncc(OC)cc1-n1c(C=C(C)C)c(C(=O)N2CCNCC2)cc(-c2nc(-c3ccc(Cl)cc3)cs2)c1=O [Compound 416]
–,–,0.3 to 1,0.3 to 1,CCc1cccc(CC)c1-n1c(CC(C)C)c(C(=O)N2CCNCC2)cc(-c2ccnc(-c3ccc(Cl)cc3)n2)c1=O [Compound 417]
–,–,< 0.3,< 0.3,CCc1cccc(CC)c1-n1c(C=C(C)C)c(C(=O)N2CCNCC2)cc(-c2nc(-c3ccc(C(F)(F)F)nc3)cs2)c1=O [Compound 418]
–,–,1 to 5,1 to 5,CCc1cccc(CC)c1-n1c(CC(C)C)c(C(=O)N2CCNCC2)cc(-c2nc(-c3ccc(C(=O)N(C)C)cc3)c(C)s2)c1=O [Compound 419]
–,–,< 0.3,< 0.3,CCOc1ccc(C)cc1-n1c(C=C(C)C)c(C(=O)N2CCNCC2)cc(-c2nc(-c3ccc(C(F)(F)F)nc3)cs2)c1=O [Compound 420]
–,–,1 to 5,1 to 5,COc1ccc(C(N)=O)cc1-n1c2c(cc(-c3nc(-c4ccc(Cl)cc4)cs3)c1=O)C(=O)CC(C)(C)C2 [Compound 423]
–,–,0.3 to 1,< 0.3,CCc1ccc(F)cc1-n1c(C=C(C)C)c(C(=O)N2CCNCC2)cc(-c2nc(-c3ccc(C(F)(F)F)nc3)cs2)c1=O [Compound 424]
–,–,< 0.3,< 0.3,CCc1cccc(CC)c1-n1c(C=C(C)C)c(C(=O)N2CCN[C@@H](C)C2)cc(-c2nc(-c3ccc(C(F)(F)F)cc3)cs2)c1=O [Compound 425]
–,–,< 0.3,< 0.3,CCc1cccc(CC)c1-n1c(C=C(C)C)c(C(=O)N2CCNC(C(N)=O)C2)cc(-c2nc(-c3ccc(Cl)cc3)cs2)c1=O (centres unmarked) [Compound 426]
–,–,0.3 to 1,< 0.3,CCc1ncc(OC)cc1-n1c(C=C(C)C)c(C(=O)N2CCNCC2)cc(-c2nc(-c3ccc(C(F)F)cc3)cs2)c1=O [Compound 427]
–,–,1 to 5,1 to 5,Cc1cccc(CO)c1-n1c2c(cc(-c3nc(-c4ccc(Cl)cc4)cs3)c1=O)C(=O)CCC2 [Compound 428]
